How the values were obtained:
[1] = test system: LNCaP xenografts; experiment: LNCaP xenograft model; format: in vivo, NOD/SCID mice; settings: mouse, in vivo
Experimental: Treatment started 19 days after implantation when the tumors measure ˜200 mm^3. Two independent experiment with 5 mice per group were carried out. J54 and Bicalutamide was dissolved in DMSO and diluted in corn oil 1:10 and administered IP bi-weekly. Sectioning and processing of the tissues were carried out in the FWCC Histology Service, using automated processes and equipment to provide uniform and standardized results. Indirect labeling was with ABC Elite: RTU Vectastain Elite Reagent, Vector #PK-7100; DAB: ImmPact DAB, Vector #SK-4105. Light counterstaining was done with hematoxylin. […] Note the weak pNek1 stain in the tumor from mice treated with J54, in contrast to the increase seen with BIC.
LNCaP Xenograft Model and Immunohistochemistry (IHC): All animals used in this study were approved by LSUHSC IACUC and following ARRIVE guidelines. Male NOD/SCID mice (5 per group) were purchased from Jackson labs. LNCaP cells were injected as described earlier. Mice were treated IP bi-weekly with J54 (5 mg/kg body weight—dose estimation derived from pharmacokinetics study) and/or Bicalutamide (100 mg/kg).
The inventors sought to establish if the addition of J54 could suppress the resurgence of tumor growth of LNCaP xenografts and their latter conversion to CRPC. Following formation of sizeable tumors (˜200 mm^3), castration or anti-androgens arrest the progression of LNCaP xenografts for some time (2-3 weeks), while subsequently the tumors start growing again at an accelerated rate which is refractory to ADT (AI). Therefore, the inventors injected LNCaP cells in matrigel in both flanks of NOD-SCID mice, and then randomly assigned them to four treatment groups (n=5 per group×2 independent experiments), as shown in FIGS. 13A-13C. […] The inventors should also point out that the inventors treated the mice with J54 only bi-weekly due to the favorable pharmacokinetics, where maximal plasma concentration of 100 ng/ml ([…]) were reached 2 h after IP injection, and was still present at −6 ng/ml (6 μM) after 24 h (FIG. 18A-18C).

[2] = target: T1, recombinant TLK1B (Homo sapiens, UniProt Q9UKI8); experiment: TLK1B kinase assay with Nek1 peptide (ADP Hunter), inhibitor screening; format: biochemical; set-up: The full-length, 65 KDa recombinant human TLK1B (hTLK1B) for the in-vitro experiments was expressed and purified from bacteria; made in house; host or cells: bacteria; settings: tested at 20 μM
T1 sequence (Q9UKI8 1-549 isoform Q9UKI8-3): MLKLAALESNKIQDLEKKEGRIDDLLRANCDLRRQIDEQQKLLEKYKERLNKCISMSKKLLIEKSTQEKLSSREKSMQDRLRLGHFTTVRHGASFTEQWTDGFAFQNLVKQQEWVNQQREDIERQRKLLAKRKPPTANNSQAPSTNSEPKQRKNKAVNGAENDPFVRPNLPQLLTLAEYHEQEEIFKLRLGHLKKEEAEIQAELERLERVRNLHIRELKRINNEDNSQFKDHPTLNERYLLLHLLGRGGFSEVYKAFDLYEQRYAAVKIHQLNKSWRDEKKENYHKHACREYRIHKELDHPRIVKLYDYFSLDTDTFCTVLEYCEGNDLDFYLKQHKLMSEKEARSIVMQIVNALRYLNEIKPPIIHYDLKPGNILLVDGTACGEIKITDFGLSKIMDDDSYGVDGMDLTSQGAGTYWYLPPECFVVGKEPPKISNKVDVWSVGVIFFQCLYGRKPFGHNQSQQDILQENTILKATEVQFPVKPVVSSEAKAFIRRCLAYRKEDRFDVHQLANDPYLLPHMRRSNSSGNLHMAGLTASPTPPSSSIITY
Experimental: FIG. 8A-FIG. 25 show further experiments into the present invention, with FIGS. 8A-8G show kinase assays, inhibitor screening, IC50 evaluation and competitive assays. Recombinant TLK1B purified to homogeneity (FIG. 8A) is active in kinase assays (FIG. 8B) and phosphorylates a specific Nek1 peptide (FIG. 8C). […] All experiments were conducted in triplicates. The DiscoverRx ADP Hunter™ (Eurofins DiscoverRx, Fremont, CA, US) Kit was used to measure the generation of ADP resulting from kinase phosphorylation of substrate.
Chemical synthesis of J54 and several different Phenothiazines and Protein expression and purification: Details were explained in section B of supplementary of material and methods. The full-length, 65 KDa recombinant human TLK1B (hTLK1B) for the in-vitro experiments was expressed and purified from bacteria as described earlier.
Results: A new PTH potent inhibitor of TLK1B. A few PTH antipsychotics were identified in a screen the inventors conducted from a compounds library as good inhibitors of TLK1. To find additional inhibitors, recombinant TLK1B was purified (FIG. 8A). The enzymatic activity was determined using the ADP-Hunter reagents and a Nek1 peptide containing the T141 target site. […] Several structurally similar compounds were synthesized as described in the Appendix (and see NMR and MS data FIGS. 10 and 11) and tested at 20 μM (FIGS. 8E and 8F). […] The inventors continued the inventors' characterization of J54.

[3] = target: T1, recombinant TLK1B; experiment: High throughput screen with Rad9 peptide substrate / autokinase assay; format: biochemical; settings: library screen
Experimental: FIGS. 5A and 5B show Inhibition of TLK1/1B autophosphorylation by PTH. […] 293T cells were incubated for 1 hour with PPH. TLK1 was immunoprecipitated, followed by auto-phosphorylation with γ-ATP^32. The blots were then probed with TLK1 antiserum.
Identification of TLK inhibitors. The inventors have screened the Prestwick Library, partially the ChemDiv, and two proprietary libraries (10,000 compounds) for inhibitors of TLK with a high throughput screen with recombinant TLK1B and a Rad9 peptide substrate. […] The inhibition of autokinase activity was confirmed by TCA-precipitable counts with γ32P-ATP (FIG. 5A).

[4] = test system: panel of cell lines, including RWPE1 and hTERT-HME1; experiment: Toxicity on a panel of cell lines without doxorubicin; format: cell-based; settings: 15 μM, absence of doxorubicin
[5] = test system: 456 human kinases; experiment: Kinome panel (KinomeScan-DiscoverX); format: binding
[6] = test system: LNCaP cells; experiment: Emergence of androgen insensitive (AI) colonies of LNCaP with bicalutamide; format: cell-based

inhibition of TLK [3] | Structure (SMILES) | toxicity [4] | further results
 | CC(O)(CS(=O)(=O)c1ccc(F)cc1)C(=O)Nc1ccc(C#N)c(C(F)(F)F)c1 (stereo not shown) [BIC, Bicalutamide, reference compound] |  | lag before exponential growth following beginning of administration [1]: 12 days
 | CN1c2ccccc2Sc2ccccc21 [J56, 10-methyl-10H-phenothiazine] |  | inhibition of TLK1B compared with standard [2]: more inhibitory than Staurosporin
strong inhibitors | CN(C)CCCN1c2ccccc2Sc2ccccc21 [PMZ, Promazine] |  | 
strong inhibitors | OCCN1CCN(CCCN2c3ccccc3Sc3ccc(Cl)cc32)CC1 [PPH, Perphenazine] | low toxicity | 
strong inhibitors | CN1CCN(CCCN2c3ccccc3Sc3ccc(C(F)(F)F)cc32)CC1 [TFP, Trifloroperazine] | low toxicity | 
strong inhibitors | CSc1ccc2c(c1)N(CCC1CCCCN1C)c1ccccc1S2 (stereo not shown) [THD, Thioridazine] | low toxicity | specificity on kinome panel [5]: no other kinase (except TLK2) in the panel was inhibited; growth inhibition in androgen containing medium (FCS) ([6]; 3-9 μM THD): 50%; emergence of AI colonies ([6]; 3-9 μM THD with bicalutamide, three weeks): few or no AI colonies emerged; conversion of LNCaP cells to androgen independent growth ([6]; three weeks of culture with bicalutamide): Complete inhibition

— patent US11826369B2, “Targeting the TLK1/NEK1 axis in prostate cancer” (Board of Supervisors of Louisiana State University and …, priority 2019, dated 2023)
